From patent US10173991B2, “Sulfone amide linked benzothiazole inhibitors of endothelial lipase” (BRISTOL-MYERS SQUIBB COMPANY, priority 2014, dated 2019) come the findings set out here.

Each structure is given as a SMILES string.

For one experiment, the target named is Endothelial lipase (EL) (Homo sapiens (Human), UniProt Q9Y5X9). As to the kind of experiment: Endothelial lipase (EL) enzymatic assay with fluorescent substrate A10070 in DMPG vesicles. It counts as biochemical.
Sequence of Endothelial lipase (EL) (Q9Y5X9 21-500): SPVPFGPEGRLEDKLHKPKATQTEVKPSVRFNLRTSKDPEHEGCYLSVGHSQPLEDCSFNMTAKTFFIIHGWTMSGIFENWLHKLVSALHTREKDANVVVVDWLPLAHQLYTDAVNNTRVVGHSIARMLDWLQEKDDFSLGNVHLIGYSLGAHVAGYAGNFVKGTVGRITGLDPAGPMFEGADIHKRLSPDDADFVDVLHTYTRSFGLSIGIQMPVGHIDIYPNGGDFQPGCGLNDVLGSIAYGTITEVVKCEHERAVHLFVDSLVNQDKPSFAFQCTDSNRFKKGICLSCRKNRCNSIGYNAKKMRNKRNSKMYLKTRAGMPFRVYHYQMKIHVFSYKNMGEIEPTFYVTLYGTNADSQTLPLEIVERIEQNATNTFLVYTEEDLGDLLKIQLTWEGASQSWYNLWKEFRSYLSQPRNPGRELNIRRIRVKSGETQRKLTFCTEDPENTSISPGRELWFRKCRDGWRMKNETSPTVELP
Conditions: not given
In a few lines:
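Vesicles prepared: A10070 dried with DMPG, resuspended in HEPES pH 8.0/NaCl/EDTA, sonicated on ice. Enzyme incubated with compound 30 min at 37° C. Reaction started with 1:10 diluted vesicles. Fluorescence (490/530 nm) followed 60 min; slope from 300–900 secs gives rate.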
By IC50 is commonly meant the midpoint of a concentration-inhibition curve. A lower IC50 goes with greater potency. With `N#Cc1cccc(COC(=O)Nc2ccc(-c3cc4sc(C(C(=O)NCC(=O)NC5CC5)S(=O)(=O)C5CC5)nc4cc3F)cc2)c1` (stereo not shown) [Example 521, (3-cyanophenyl) methyl N-(4-{2-[(cyclopropane-sulfonyl) ({[(cyclopropyl-carbamoyl)methyl]carbamoyl}methyl]-5-fluoro-1,3-benzothiazol-6-yl}phenyl) carbamate], half-maximal inhibition (IC50) was put at 3 nM.
Still for that read-out and setting: with `N#Cc1cccc(COC(=O)Nc2ccc(-c3cc4sc(C(C(=O)NCC(=O)NC5CC5)S(=O)(=O)CCC(F)(F)F)nc4cc3F)cc2)c1` (stereo not shown) [Example 522, (3-cyanophenyl) methyl N-{4-[2-({[(cyclopropyl-carbamoyl)methyl]carbamoyl}(3,3,3-trifluoropropane-sulfonyl)methyl)-5-fluoro-1,3-benzothiazol-6-yl]phenyl} carbamate] the figure was 1 nM; with `O=C(CNC(=O)C(c1nc2cc(F)c(-c3ccc(NC(=O)OCc4nccs4)cc3)cc2s1)S(=O)(=O)CCC(F)(F)F)NC1CC1` (stereo not shown) [Example 523, 1,3-thiazol-2-ylmethyl N-{4-[2-({[(cyclopropyl-carbamoyl)methyl]carbamoyl}(3,3,3-trifluoropropane-sulfonyl)methyl)-5-fluoro-1,3-benzothiazol-6-yl]phenyl} carbamate], 6 nM.
Still for that read-out and setting: the figure for `COCCS(=O)(=O)C(C(=O)NCC(=O)NC1CC1)c1nc2cc(F)c(-c3ccc(NC(=O)OCc4nccs4)cc3)cc2s1` (stereo not shown) [Example 524, 1,3-thiazol-2-ylmethyl N-{4-[2-({[(cyclopropyl-carbamoyl)methyl]carbamoyl}(2-methoxyethane-sulfonyl)methyl)-5-fluoro-1,3-benzothiazol-6-yl]phenyl} carbamate] is 13 nM; for `COCCS(=O)(=O)C(C(=O)NCC(=O)NC1CC1)c1nc2cc(F)c(-c3ccc(NC(=O)OCC(F)(F)F)cc3)cc2s1` (stereo not shown) [Example 526, 2,2,2-trifluoroethyl N-{4-[2-({[(cyclopropyl-carbamoyl)methyl]carbamoyl}(2-methoxyethane-sulfonyl)methyl)-5-fluoro-1,3-benzothiazol-6-yl]phenyl} carbamate] it is 1 nM; for `CS(=O)(=O)C(C(=O)NCC(=O)NC1CC1)c1nc2cc(F)c(-c3ccc(NC(=O)OCC4CC4)cc3)cc2s1` (stereo not shown) [Example 527, cyclopropylmethyl N-{4-[2-({[(cyclopropyl-carbamoyl)methyl]carbamoyl}) (methanesulfonyl)methyl)-5-fluoro-1,3-benzothiazol-6-yl]phenyl} carbamate] it is 9 nM.
The molecule `CC(C)S(=O)(=O)C(C(=O)NCC(=O)NC1CC1)c1nc2cc(F)c(-c3ccc(NC(=O)OCC4CC4)cc3)cc2s1` (stereo not shown) [Example 528] gave an IC50 of 1 nM.
On the same count and under the same terms, with `O=C(CNC(=O)C(c1nc2cc(F)c(-c3ccc(NC(=O)OCC(F)(F)F)cc3)cc2s1)S(=O)(=O)CCC(F)(F)F)NC1CC1` (stereo not shown) [Example 529, 2,2,2-trifluoroethyl N-{4-[2-({[(cyclopropyl-carbamoyl)methyl]carbamoyl}(3,3,3-trifluoropropane-sulfonyl)methyl)-5-fluoro-1,3-benzothiazol-6-yl]phenyl} carbamate] the figure was 2 nM; with `O=C(CNC(=O)C(c1nc2cc(F)c(-c3ccc(NC(=O)OCC4CC4)cc3)cc2s1)S(=O)(=O)C1CC1)NC1CC1` (stereo not shown) [Example 530, cyclopropylmethyl N-(4-{2-[(cyclopropane-sulfonyl) ({[(cyclopropyl-carbamoyl)methyl]carbamoyl})methyl]-5-fluoro-1,3-benzothiazol-6-yl}phenyl) carbamate], 3 nM; with `O=C(CNC(=O)C(c1nc2cc(F)c(-c3ccc(NC(=O)OCC4CC4)cc3)cc2s1)S(=O)(=O)CCC(F)(F)F)NC1CC1` (stereo not shown) [Example 531, cyclopropylmethyl N-{4-[2-({[(cyclopropyl-carbamoyl)methyl]carbamoyl}(3,3,3-trifluoropropane-sulfonyl)methyl)-5-fluoro-1,3-benzothiazol-6-yl]phenyl} carbamate], 1 nM.
`COCCOC(=O)Nc1ccc(-c2cc3sc(C(C(=O)NCC(=O)NC4CC4)S(C)(=O)=O)nc3cc2F)cc1` (stereo not shown) [Example 533, 2-methoxyethyl N-{4-[2-({[(cyclopropyl-carbamoyl)methyl]carbamoyl} (methanesulfonyl)methyl)-5-fluoro-1,3-benzothiazol-6-yl]phenyl} carbamate]: the IC50 stood at 3 nM.
Molecule `COCCOC(=O)Nc1ccc(-c2cc3sc(C(C(=O)NCC(=O)NC4CC4)S(=O)(=O)CCC(F)(F)F)nc3cc2F)cc1` (stereo not shown) [Example 534, 2-methoxyethyl N-{4-[2-({[(cyclopropyl-carbamoyl)methyl]carbamoyl}(3,3,3-trifluoropropane-sulfonyl)methyl)-5-fluoro-1,3-benzothiazol-6-yl]phenyl} carbamate] returned a concentration for half-maximal inhibition (IC50) of 2 nM.
Same read-out and setting: with `COCCOC(=O)Nc1ccc(-c2cc3sc(C(C(=O)NCC(=O)NC4CC4)S(=O)(=O)CCOC)nc3cc2F)cc1` (stereo not shown) [Example 535, 2-methoxyethyl N-{4-[2-({[(cyclopropyl-carbamoyl)methyl]carbamoyl}(2-methoxyethane-sulfonyl)methyl)-5-fluoro-1,3-benzothiazol-6-yl]phenyl} carbamate] the figure was 4 nM; with `COCCOC(=O)Nc1ccc(-c2cc3sc(C(C(=O)NCC(=O)NC4CC4)S(=O)(=O)C4CC4)nc3cc2F)cc1` (stereo not shown) [Example 536, 2-methoxyethyl N-(4-{2-[(cyclopropane-sulfonyl) ({[(cyclopropyl-carbamoyl)methyl]carbamoyl})methyl]-5-fluoro-1,3-benzothiazol-6-yl}phenyl) carbamate], 2 nM; with `COCCS(=O)(=O)C(C(=O)NCC(=O)NC1CC1)c1nc2cc(F)c(-c3ccccc3NC(=O)OC)cc2s1` (stereo not shown) [Example 537, methyl N-{2-[2-({[(cyclopropyl-carbamoyl)methyl]carbamoyl}(2-methoxyethane-sulfonyl)methyl)-5-fluoro-1,3-benzothiazol-6-yl]phenyl} carbamate], 92 nM.
Still for that read-out and setting: the figure for `CC(C)OC(=O)Nc1ccc(-c2cc3sc(C(C(=O)NCC(=O)NC4CC4)S(C)(=O)=O)nc3cc2F)cc1` (stereo not shown) [Example 539, propan-2-yl N-{4-[2-({[(cyclopropyl-carbamoyl)methyl]carbamoyl} (methanesulfonyl)methyl)-5-fluoro-1,3-benzothiazol-6-yl]phenyl} carbamate] is 1 nM; for `CC(C)OC(=O)Nc1ccc(-c2cc3sc(C(C(=O)NCC(=O)NC4CC4)S(=O)(=O)C(C)C)nc3cc2F)cc1` (stereo not shown) [Example 541, propan-2-yl N-{4-[2-({[(cyclopropyl-carbamoyl)methyl]carbamoyl} (propane-2-sulfonyl)methyl)-5-fluoro-1,3-benzothiazol-6-yl]phenyl} carbamate] it is 2 nM.
On the same count and under the same terms, with `CC(C)OC(=O)Nc1ccc(-c2cc3sc(C(C(=O)NCC(=O)NC4CC4)S(=O)(=O)C4CC4)nc3cc2F)cc1` (stereo not shown) [Example 542, propan-2-yl N-(4-{2-[(cyclopropane-sulfonyl) ({[(cyclopropyl-carbamoyl)methyl]carbamoyl})methyl]-5-fluoro-1,3-benzothiazol-6-yl}phenyl) carbamate] the figure was 2 nM; with `O=C(CNC(=O)C(c1nc2cc(-c3ccc(NC(=O)OCc4ccccc4)nc3)c(F)cc2s1)S(=O)(=O)CCC(F)(F)F)NC1CC1` (stereo not shown) [Example 543, benzyl N-{5-[2-({[(cyclopropyl-carbamoyl)methyl]carbamoyl}(3,3,3-trifluoropropane-sulfonyl)methyl)-6-fluoro-1,3-benzothiazol-5-yl]pyridin-2-yl} carbamate], 6 nM.
Molecule `COC(=O)N(C)c1cccc(-c2ccc3nc(C(C(=O)NCC(=O)NC4CC4)S(C)(=O)=O)sc3c2)c1` (stereo not shown) [Example 544, methyl N-{3-[2-({[(cyclopropyl-carbamoyl)methyl]carbamoyl} (methanesulfonyl)methyl)-1,3-benzothiazol-6-yl]phenyl}-N-methylcarbamate] yielded an IC50 of 19 nM.
`COCCS(=O)(=O)C(C(=O)NCC(=O)NC1CC1)c1nc2ccc(-c3cccc(N(C)C(=O)OC)c3)cc2s1` (stereo not shown) [Example 545, methyl N-{3-[2-({[(cyclopropyl-carbamoyl)methyl]carbamoyl}(2-methoxyethane-sulfonyl)methyl)-1,3-benzothiazol-6-yl]phenyl}-N-methylcarbamate] had a 50% inhibitory concentration (IC50) of 13 nM.
Same read-out and setting: with `COC(=O)N(C)c1cccc(-c2ccc3nc(C(C(=O)NCC(=O)NC4CC4)S(=O)(=O)CCC(F)(F)F)sc3c2)c1` (stereo not shown) [Example 546, methyl N-{3-[2-({[(cyclopropyl-carbamoyl)methyl]carbamoyl}(3,3,3-trifluoropropane-sulfonyl)methyl)-1,3-benzothiazol-6-yl]phenyl}-N-methylcarbamate] the figure was 7 nM.

The experiment is the same for the next values; noted with them: EL from conditioned media of HT-1080 cells; 30 min preincubation at 37° C.
`COCCS(=O)(=O)C(C(=O)NCC(=O)NC1CC1)c1nc2cc(F)c(-c3ccc(NC(=O)OCC4CC4)cc3)cc2s1` (stereo not shown) [Example 525, Cyclopropylmethyl N-{4-[2-({[(cyclopropylcarbamoyl)methyl]carbamoyl}(2-methoxyethanesulfonyl)methyl)-5-fluoro-1,3-benzothiazol-6-yl]phenyl}carbamate] yielded a half-inhibitory concentration (IC50) of 0.5 nM.
The same measure, in the same setting: the figure for `COC(=O)Nc1ccccc1-c1cc2sc(C(C(=O)NCC(=O)NC3CC3)S(C)(=O)=O)nc2cc1F` (stereo not shown) [Example 532, Methyl N-{2-[2({[(cyclopropylcarbamoyl)methyl]carbamoyl}(methanesulfonyl)methyl)-5-fluoro-1,3-benzothiazol-6-yl]phenyl}carbamate] is 110 nM; for `COC(=O)Nc1ccc(-c2cc3sc(C(C(=O)NCC(=O)NC4CC4)S(C)(=O)=O)nc3cc2F)cc1OC` (stereo not shown) [Example 538, Methyl N-{4-[2({[(cyclopropylcarbamoyl)methyl]carbamoyl}(methanesulfonyl)methyl)-5-fluoro-1,3-benzothiazol-6-yl]-2-methoxyphenyl}carbamate] it is 4.5 nM.
